This note sets out measurements from the supplement of paper PMC4862054.

Molecules are shown by their SMILES.

Assay in all cases: normalised response (% of control), CellTiter-Glo; higher = more viable cells (100 = DMSO, 0 = benzethonium chloride kill control)
Common to all, as to conditions: incubation time: 72 h

For assay [1], the system named is MDA-MB-453. In a few lines:
(§1)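 Values are normalised signals, each belonging to one concentration of the series. Breast cancer cells (20 µl suspension) were seeded into 384-well plates with compound at 5 concentrations in 10-fold steps over a compound-specific 10,000-fold range and incubated 72 h. Readouts were CellTox Green fluorescence (485/520 nm), then CellTiter-Glo luminescence after 10 min at room temperature, with each plate set to 0.1 % DMSO as 100 and a positive kill control as 0.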

Assay [2] concerns MDA-MB-436. In a few lines: as §1
Assay [3] concerns SK-BR-3. Summed up:
as §1

Assay [4] has as its system CAL-51. Summed up: as §1
Assay [5] concerns DU-4475. As to the method:
(§2)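 DSRT, 72 h incubation, CellTox Green / CellTiter-Glo readout. Signal is normalised to DMSO and benzethonium chloride controls. Value is the normalised response at the highest dose.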

Assay [6] has as its system MDA-MB-453. Here is the method: as §2
The source holds these as a separate data set.

Assay [7] has as its system BT-549. Here is the method: as §2
Assay [8] relates to CAL-85-1. Here is the method: as §2
Assay [9] has as its system Hs578T. As to the method:
as §2

In assay [10] the test system is MDA-MB-231. As to the method: as §2
Assay [11] concerns MDA-MB-468. Here is the method: as §2
Assay [12] relates to MFM-223. As to the method: as §2
Assay [13] relates to HDQ-P1. As to the method: as §2
The test system of assay [14] is CAL-120. As to the method: as §2

For `C#Cc1cccc(Nc2ncnc3cc(OC)c(OCCCCCCC(=O)NO)cc23)c1` [CUDC-101] (1000 nM), the normalised response was 13.5% in assay [1], 73.7% in assay [2], 33.5% in assay [3] and 68.4% in [4].
On to `O=C(c1ccc(OCCN2CCCCC2)cc1)c1c(-c2ccc(O)cc2)sc2cc(O)ccc12` [Raloxifene] (10000 nM), for which the normalised response was found to be 90.1% in [5]; 66.1% in assay [6]; 70.7% in assay [7]; 76.7% in assay [8]; 96.9% in assay [9]; 68.5% in assay [10]. The normalised response is 46.1% in assay [11], 62.5% in assay [12], 86.8% in assay [13] and 82.2% in assay [14].
Turning to `CCS(=O)(=O)c1cccc(-c2cc(C(=O)NC3CCN(C)CC3)c(C)c3[nH]c4ncc(C)cc4c23)c1` [TAK-901] (1000 nM), the normalised response in assay [5] is 84.9%; in assay [6], 104%; in [7] it was 28.7%; in assay [8], 73.4%; in [9] it was 75.2%; in assay [10], 23%. The normalised response is 36.4% in assay [11], 45.9% in assay [12], 39.4% in assay [13] and 52.8% in [14].
Regarding `O=c1[nH]cc(F)c(=O)[nH]1` [Fluorouracil] (10000 nM), the normalised response was 99.5% in [5]; 94.8% in assay [6]; 91.7% in [7]; 57.5% in [8]; 93.7% in assay [9]; 82.2% in assay [10]. Further, the normalised response in assay [11] was 77.4%; in assay [12], 105%; in assay [13], 91.8%; in assay [14], 95.5%.
For `COc1c(C)cnc(Cn2cnc3c(Cl)nc(N)nc32)c1C` [BIIB021] (10000 nM), the normalised response in assay [5] came to 0.28%; in assay [6], 27.5%; in assay [7] it was 38.2%; in assay [8], 18.6%; in assay [9] it was 33.7%; in assay [10] it was 16.7%. The normalised response came to 23.8% in [11], 35.1% in assay [12], 20.3% in assay [13] and 45.4% in assay [14].
As for `O=C(c1ccc(OCCN2CCCCC2)cc1)c1c(-c2ccc(O)cc2)sc2cc(O)ccc12` [Raloxifene] (1000 nM), the normalised response came to 103% in assay [1], 103% in assay [2], 105% in assay [3] and 121% in [4].
Consider `O=c1[nH]c(=O)n([C@H]2C[C@H](O)[C@@H](CO)O2)cc1F` [Floxuridine] (10000 nM), for which the normalised response in [5] was found to be 70.7%; in [6], 97.6%; in assay [7] it was 80.1%; in assay [8] it was 23.6%; in [9] it was 23%; in [10], 67.9%. Further, the normalised response is 60.7% in assay [11], 103% in assay [12], 82.8% in assay [13] and 33.5% in [14].
On to `C[C@@H]1C=C2C(=O)O[C@@H]3CC[C@H](C1)[C@]23O` [Galiellalactone] (50000 nM), for which the normalised response in assay [5] came to 102%; in assay [6], 105%; in assay [7], 44.3%; in assay [8] it was 72.2%; in assay [9], 101%; in assay [10], 106%. The normalised response in assay [11] was 39.1%; in [12], 105%; in assay [13], 93.9%; in [14], 105%.
Regarding `COc1ccc(C2=N[C@@H](c3ccc(Cl)cc3)[C@@H](c3ccc(Cl)cc3)N2C(=O)N2CCNC(=O)C2)c(OC(C)C)c1` [Nutlin-3] (1000 nM), the normalised response is 102% in assay [1], 110% in assay [2], 109% in [3] and 83.9% in assay [4].
Turning to `COC1=C2C[C@@H](C)C[C@H](OC)[C@H](O)[C@@H](C)/C=C(\C)[C@H](OC(N)=O)[C@@H](OC)/C=C\C=C(/C)C(=O)NC(=CC1=O)C2=O` [Geldanamycin] (1000 nM), the normalised response in assay [1] came out at 96.6%; in assay [2] it was 64.4%; in assay [3], 87.1%; in assay [4], 96.2%.
The like results for `O=c1[nH]c(=O)n([C@H]2C[C@H](O)[C@@H](CO)O2)cc1F` [Floxuridine] (1000 nM) were, in that order, 102%, 67.9%, 54.2% and 37.8%.
The corresponding values for `C[C@@]1(C(=O)Nc2ccc(F)nc2)CCCN1c1nc(Nc2cc(C3CC3)n[nH]2)c2cccn2n1` (1000 nM) are 115%, 66.9%, 67.9% and 62.5%.
The like results for `COc1cccc2c1C(=O)c1c(O)c3c(c(O)c1C2=O)C[C@@](O)(C(C)=O)C[C@@H]3O[C@H]1C[C@H](N)[C@H](O)[C@H](C)O1` [Daunorubicin] (100 nM) were, in that order, 139%, 77.9%, 91.9% and 46.2%.
Consider `CCS(=O)(=O)c1cccc(-c2cc(C(=O)NC3CCN(C)CC3)c(C)c3[nH]c4ncc(C)cc4c23)c1` [TAK-901] (100 nM), for which the normalised response in assay [1] worked out at 160%; in [2], 97.2%; in assay [3] it was 106%; in assay [4] it was 82.4%.
The like results for `COC1=CC(c2cc3ccccc3[nH]2)=N/C1=C\c1[nH]c(C)cc1C` [Obatoclax] (1000 nM) were, in that order, 96.3%, 89.7%, 87% and 99.5%.
The like results for `CC(C)(C)c1cc(NC(=O)Nc2ccc(-c3cn4c(n3)sc3cc(OCCN5CCOCC5)ccc34)cc2)no1` [Quizartinib] (100 nM) were, in that order, 104%, 111%, 105% and 107%.
The like results for `O=c1[nH]cc(F)c(=O)[nH]1` [Fluorouracil] (1000 nM) were, in that order, 121%, 75.6%, 78.9% and 110%.
Consider `CN1CCN(c2ccc3nc(-c4c(N)c5c(F)cccc5[nH]c4=O)[nH]c3c2)CC1` [Dovitinib] (1000 nM), for which the normalised response in assay [1] was 92%; in assay [2], 101%; in assay [3], 97.2%; in assay [4], 115%.
The like results for `Cn1c(=O)c(F)c(Nc2ccc(I)cc2F)c2c(=O)n(C[C@@H](O)CO)cnc21` [TAK-733] (100 nM) were, in that order, 123%, 97.1%, 117% and 64.6%.
